# US11793199B2, “Formulations and methods for controlling rootworm larvae” (FMC Corporation, priority 2016, dated 2023)
# Experiments:
# WCRW larvae = experiment: Residual activity of treated soil maintained outdoors, water pH 6, 7, 8 (Example 4); format: in vivo, Diabrotica virgifera virgifera
# Protocol: A solution of the Test Formula A was prepared by making dilutions in water to form a solution. Dry, Midwestern soil was brought up to 15% moisture with treatment solutions (Table 5). Buckets of treated soil were carted outside daily between Monday and Friday and exposed to direct sunlight. Carts were not wheeled out on days that forecasted precipitation. At the end of each day, soil buckets were brought back into the laboratory, weighed, the appropriate amount of water added to the soil to bring it back up to 15% moisture, and covered overnight; daily records of weights and amount of water added to each bucket was recorded.
# At 30DAT, 42DAT, 57DAT, and 85DAT, […] WCRW larvae were infested into treated soil containing and germinating corn seed and evaluated 6 days after infestation (6DAI) for percent control and larval stunting. There were 6 replicates per infestation date with 5 larvae per replicate (n=30). Treatments applied to dry Midwestern soil for assessment of residual WCRW included Test Formula at 67, 267, and 1,069 ppm, Capture LFR at 1988.5 and 3,977 ppm.
# 2nd instar WCRW = experiment: Residual activity of treated Midwestern soil kept in lab at 15% moisture (Example 5); format: in vivo, Diabrotica virgifera virgifera
# Protocol: In order to induce seed germination prior to test initiation, corn seed was submerged in water for 12 h and then placed between layers of moistened paper towel for 72 h. Plastic Dart® containers (1 oz/30 ml) were utilized for the assay. Treatments included tetraniliprole Test Formula according to the present invention, Capture LFR® (bifenthrin), and Rugby® (cadusafos). A 60 g ai/ha foliar rate applied at a volume of 30GPA equates to 213.8 ppm. If this application rate was condensed into a 6″ T-band application that assumed a 30″ row spacing, the ppm rate would increase to 1069 ppm (213.8 ppm×5). Five rates were selected for the experimental treatment (Test Formula) and compared to a single rate of two standard treatments (Capture LFR and Rugby). Treatment solutions (Table 4) were mixed into dry, sifted, Midwestern soil, from Wyoming, Illinois, by adding 300mLs of solution into 2000 g of soil and equates to approximate 15% soil moisture value; soil clumped when pinched.
# An estimated 0.75 cm of treated soil was placed into the bottom of each container, one germinated corn seed was placed onto the soil, and then the arenas were capped with a lid until rootworms were infested. Corn was covered with approximately 1.75 cm of treated soil. Using a fine tipped paint brush, 5 WCRW larvae (2nd instar) were transferred onto the soil of each replicate and then capped. There were 8 replicates and 40 larvae per treatment. Arenas containing soil, corn, and larvae were transferred into the Insectary room (≈23° C., 0 L:24D) and evaluated 6 days later for the presence of living larvae. Larvae not recovered within each arena were considered dead. Additional treated soil was maintained within a 5 gallon bucket, covered with aluminum […], and weights recorded. Additional water was added every Monday in order to maintain a 15% soil moisture level.
# All mortality data was analyzed by ANOVA/GLM with an alpha of 0.1 (Minitab 16.0).
substance,measurement,setting,value
tetraniliprole,control to WCRW larvae,"WCRW larvae; 67 ppm (3.75 g ai/ha), soil kept outdoors, water pH 6, 7 or 8",≥ 87%
same,state of surviving larvae compared to the non-treated check,"WCRW larvae; 67 ppm, 57 DAT and 85 DAT",severely stunted
same,size of larvae,"2nd instar WCRW; 3.75 g ai/ha, 0 DAT",approximately half the size as the untreated check
same,control to 2nd instar WCRW larvae at 64DAT,"2nd instar WCRW; 15, 30, 60 g ai/ha, lab soil at 15% moisture",≥ 95%
same,larval stunting compared to the untreated check,"2nd instar WCRW; all treated soils, 0 DAT",Stunted larvae were detected
same,protection to the root and shoot system of corn,"2nd instar WCRW; all treated soils, 0 DAT",evident
same,2nd instar WCRW: % Mortality 0DAT,"2nd instar WCRW; lab soil 15% moisture, 66.8 ppm (3.75 g ai/ha in-furrow), after 144 h within treated soil",< 80%
same,2nd instar WCRW: % Mortality 0DAT,"2nd instar WCRW; lab soil 15% moisture, 133.6 ppm (7.5 g ai/ha in-furrow), after 144 h within treated soil",< 80%
same,2nd instar WCRW: % Mortality 0DAT,"2nd instar WCRW; lab soil, 534.5 ppm (30 g ai/ha in-furrow), after 144 h",97.5%
same,2nd instar WCRW: % Mortality 0DAT,"2nd instar WCRW; lab soil, 1069 ppm (60 g ai/ha in-furrow), after 144 h",97.5%
